Data from US7879795B2, “Enhancement of tigecycline potency using efflux pump inhibitors” (Mpex Pharmaceuticals, Inc., priority 2004, dated 2011).
Like-named read-outs stand apart in the source and are kept apart here.

Key:
Enterobacter cloacae 25 = assay: Antibiotic MIC with fixed concentration of compound 21, Enterobacter cloacae 25; assay type: cell-based
Klebsiella pneumonia 79 = assay: Antibiotic MIC with fixed concentration of compound 21, Klebsiella pneumonia 79; assay type: cell-based
Experimental: (§1) To further characterize the clinical potential of tigecycline/EPI combinations, the microbiological activity of tigecycline in combination with compound 21 was investigated using clinical isolates of P. aeruginosa and other gram-negative bacteria. In several experiments, described below, the impact of a fixed concentration of compound 21 (2.5 μg/ml) on susceptibility to tigecycline was determined.
(§2) The impact of compound 21 on the activity of tigecycline against representative members of Enterobacteriacaea was also tested.

Citrobacter freundii 13 = assay: Antibiotic MIC with fixed concentration of compound 21, Citrobacter freundii 13; assay type: cell-based
Experimental: as §1, §2

[1] = test system: Enterobacter aerogenes 19; assay: Antibiotic MIC with fixed concentration of compound 21, Enterobacter aerogenes 19; assay type: cell-based
Klebsiella pneumonia 73 = assay: Antibiotic MIC with fixed concentration of compound 21, Klebsiella pneumonia 73; assay type: cell-based
Experimental: as §1, §2

[2] = In vitro stability in rat serum and tissue homogenates (LC/MS/MS); assay type: in vitro ADME; conditions: in words
Experimental: To test the stability of the compounds in vitro, samples were prepared and analyzed by LC/MS/MS according to the following procedure.
Homogenization: A chunk of fresh tissue was weighed and mixed with saline at 1:1 ratio (w/v) in a 12×75 mm polypropylene round bottom tube. The mixture was homogenized with a Polytron homogenizer (on ice, 3×10 seconds with 10 second intervals at the setting of 7).
Incubation and TCA-precipitation: An appropriate amount of a tissue homogenate was pre-warmed at 37° C. for 2 minutes in an Eppendorf tube. The compound to be tested was added to the tube to a final concentration of 2 μg/ml, mixed, and a 60 μl aliquot was immediately taken (as 0 hour sample) and mixed with 120 μl of 4% TCA (trichloroacetic acid) in an Eppendorf tube. The temperature of the tube containing the rest of the tissue sample was returned to 37° C. for incubation. Later, samples were taken as scheduled and mixed with TCA as described above. Plasma and lavage samples were directly incubated with the compounds without addition of saline and homogenization.
LC/MS/MS sample vial preparation: TCA-precipitated sample tubes were vortexed for 30 seconds, centrifuged in a microfuge at top speed (13.2 k rpm) for 5 minutes. The supernatant was collected. The pH was neutralized to about 3.5 with ammonium acetate buffer. The sample (45 μl) was transferred to a glass LC/MS/MS vial (Kimble, 11 mm, 1.5 ml) and 5 μl of an internal standard was added to a final concentration of 500 ng/ml. LC/MS/MS analysis was performed in Chemistry Department of San Diego State University.
LC/MS/MS protocol: Thermo-Finnigan TSQ Quantum triple sector mass spectrometer with electrospray (ESI) ionization was used to analyze the samples. The operation conditions were: Mobile phase of pH 3.00 water/formic acid: acetonitrile-methanol (45%:5%:50% by volume); Thermo-Keystone Betabasic C-18 column (2.1 mm×50 mm) operated at 0.100 mL/min.
Many proteases responsible for degrading EPI compounds are located in […]. Lysozymes typically have an acidic pH (about 4.8-5), whereas the pH in tissue homogenates that were prepared was higher (kidney, pH 6.8; liver, pH 6.6; and lung, pH 7.5). To test the effect of tissue homogenates closer to physiological conditions, the pH was lowered to about 6 by adding acetic acid to the tissue homogenates and compound stability was tested. FIG. 2 depicts the stability of compounds 1 and 3 at different pH. […] The pH-dependent degradation of compound 3 was especially evident in kidney homogenates.
FIG. 4 is a bar graph depicting the stability of compound 3 in the supernatant and pellet of kidney tissue homogenates.

[3] = Tissue levels in rat six-hour after 8.4 mg/kg IV bolus; assay type: in vivo; conditions: rat kidney, liver and lung; 8.4 mg/kg IV bolus; in words
Experimental: Tissue levels of compounds 1, 2, 3 and 4 were evaluated in kidney, liver and lung six-hour after 8.4 mg/kg IV bolus administration. FIG. 13 depicts the levels as a function of time.
Compound 67, which is the expected metabolite of proteolytic intracellular degradation of compound 3, was detected in rat tissues after IV infusion, confirming the tissue-specific degradation of compound 3 (Tables 9A, B).

[4] = test system: P. aeruginosa, PAM1723, overexpressing the MexAB-OprM efflux pump; assay: Levofloxacin potentiation checkerboard assay (broth microdilution); assay type: cell-based
Experimental: Stock solution was stored at −80° C.
The checkerboard assay was performed in microtiter plates. […] EPIs were diluted in the y axis, each row containing an equal concentration of an EPI. The result of these manipulations was that each well of the microtiter plate contains a unique combination of concentrations of the two agents. The assay was performed in MHB with a final bacterial inoculum of 5×10^5 CFU/ml (from an early-log phase culture). Microtiter plates were incubated during 20 h at 35° C. and were read using a microtiterplate reader (Molecular Devices) at 650 nm as well as visual observation using a microtiter plate-reading mirror.

[5] = Tissue levels after 2-hour IV infusion in rats; assay type: in vivo, rat; conditions: for concentration at 6 h: 4 h after end of 2-hour IV infusion; for concentration at 6 h / concentration at 2 h: 10 mg/kg; for 2 h/4 h Ratio: Table 7, 2 h and 6 h; for concentration at 2 h: end of 2-hour IV infusion
Experimental: Levels of EPIs in various tissues were evaluated after 2-hour IV infusion in rats. The rats received 10 mg/kg IV infusion through FVC. Animals were divided into 2 groups: group 1 was sacrificed immediately after the end of infusion and group 2, 2 h or 4 h after the end of infusion. Tissues from each animal were collected, homogenized and compounds were extracted. Tissues were mixed with saline at 1:1 ratio (v/w) in 12×75 mm polypropylene round bottom tubes. The mixtures were homogenized with a Polytron homogenizer (on ice, 3×10-15 seconds with 30 seconds intervals at the setting of 7). 50 μl of homogenized tissue were immediately transferred to an Eppendorf tube and 2-volumes of 4% TCA were added. After vortexing for 30 seconds, the tubes were centrifuged in a microfuge at top speed (13.2 k rpm) for 5 minutes. The supernatant was collected, and 45 μl of the supernatant was transferred to a glass LC/MS/MS vial (Kimble, 11 mm, 1.5 ml) for analysis, which allowed determination of tissue levels of EPIs at the end of the infusion and 2 h or 4 h later.

[6] = Rat serum pharmacokinetics after 2-hour IV infusion; assay type: in vivo
Experimental: Rat serum pharmacokinetics of compounds 1, 3, 7, and 21 was evaluated after 2-hour IV infusion of 1 mg/ml EPI solution in 0.9% saline. Total infused dose was 10 mg/kg. FIG. 12 depicts the serum concentrations as a function of time. A two-compartment model was used to fit the data and calculate PK parameters.

PAM1723 = conditions: for stability in rat serum: summary of Table 4, in words
Experimental: Stability in rat and human serum was also evaluated using a bioassay. 320 μg/ml of the test compound was treated with 50% serum for 4 hours.
Bioassays as described in Example 62 and Example 65 were used to evaluate the stability of various compounds in serum and rabbit kidney homogenates.

[7] = test system: strain PAM1723 of P. aeruginosa; assay type: in vitro ADME
Experimental: Stability of compounds was also evaluated using a bioassay. The test compound at 320 μg/ml was treated with rabbit kidney supernatant for 0, 0.5, 1 and 2 hours.

Compound: CC[C@H]1OC(=O)[C@H](C)[C@@H](O[C@H]2C[C@@](C)(OC)[C@@H](O)[C@H](C)O2)[C@H](C)[C@@H](O[C@@H]2O[C@H](C)C[C@H](N(C)C)[C@H]2O)[C@](C)(O)C[C@@H](C)CN(C)[C@H](C)[C@@H](O)[C@]1(C)O [Azithromycin, reference compound]
- Azi (MIC) (Enterobacter cloacae 25; azithromycin alone): 16 µg/mL
- Azi (MIC) (Klebsiella pneumonia 79; azithromycin alone): 64 µg/mL
- Azi (MIC) (Citrobacter freundii 13; azithromycin alone): 8 µg/mL
- Azi (MIC) ([1]; azithromycin alone): 32 µg/mL
- Azi (MIC) (Klebsiella pneumonia 73; azithromycin alone): 16 µg/mL

Compound: NCCC[C@@H](N)C(=O)N[C@@H](CCc1ccccc1)C(=O)Nc1cnc2ccccc2c1 [Compound 4, 2-(R),5-Diamino-pentanoic acid [3-phenyl-1-(S)-(quinolin-3-ylcarbamoyl)-propyl]-amide]
- stability in supernatant of rat kidney tissue homogenates [2]: neither compound 1 nor compound 4 show any instability
- tissue levels at 6 hours after IV injection [3]: relatively high levels
- Antibiotic (levofloxacin) MIC in the presence of EPI ([4]; EPI 0 μg/ml (levofloxacin alone)): 2 µg/mL
- Antibiotic (levofloxacin) MIC in the presence of EPI ([4]; EPI 1.25 μg/ml): 2 µg/mL
- Antibiotic (levofloxacin) MIC in the presence of EPI ([4]; EPI 5 μg/ml): 2 µg/mL
- Antibiotic (levofloxacin) MIC in the presence of EPI ([4]; EPI 10 μg/ml): 0.5 µg/mL
- Antibiotic (levofloxacin) MIC in the presence of EPI ([4]; EPI 20 μg/ml): 0.06 µg/mL
- Antibiotic (levofloxacin) MIC in the presence of EPI ([4]; EPI 40 μg/ml): 0.06 µg/mL
- Antibiotic (levofloxacin) MIC in the presence of EPI ([4]; EPI 80 μg/ml): 0.03 µg/mL
- Antibiotic (levofloxacin) MIC in the presence of EPI ([4]; EPI […]): 2 µg/mL
- MPC8 ([4]; EPI concentration necessary to increase susceptibility to levofloxacin eight-fold): 20 µg/mL

Compound: NCCC[C@H](N)C(=O)N[C@H](CCc1ccccc1)C(=O)Nc1ccc2ncccc2c1 [Compound 7, 2-(S),5-Diamino-pentanoic acid [3-phenyl-1-(R)-(quinolin-6-ylcarbamoyl)-propyl]-amide]
- concentration at 6 h ([5]; rat kidney): 960 ng/mL
- 2 h/4 h Ratio ([5]; rat kidney): 57.37
- concentration at 2 h ([5]; rat kidney): 55400 ng/mL
- concentration at 6 h ([5]; rat liver): 270 ng/mL
- 2 h/4 h Ratio ([5]; rat liver): 29.85
- concentration at 2 h ([5]; rat liver): 7960 ng/mL
- concentration at 6 h ([5]; rat lung): 3170 ng/mL
- 2 h/4 h Ratio ([5]; rat lung): 4.11
- concentration at 2 h ([5]; rat lung): 13000 ng/mL
- tissue levels and clearance from tissues after 2-hour IV infusion ([5]; rat, in words): cleared from tissues relatively fast
- serum PK profile after 2-hour IV infusion ([6]; 10 mg/kg, in words): best serum PK profile
- clearance ([6]; serum, 2-hour IV infusion, total dose 10 mg/kg, two-compartment model): 6.5 mL/min/kg

Compound: NCCC[C@H](N)C(=O)N[C@@H](CCc1ccc(F)cc1)C(=O)Nc1cnc2ccccc2c1 [Compound 9, 2-(S),5-Diamino-pentanoic acid [3-(4-fluoro-phenyl)-1-(S)-(quinolin-3-ylcarbamoyl)-propyl]amide]
- stability in rat serum (PAM1723): unstable in rat serum

Compound: CN(C(=O)[C@@H](CCc1ccccc1)NC(=O)[C@@H](N)CCCN)c1cnc2ccccc2c1 [Compound 18, 2-(S),5-Diamino-pentanoic acid [1-(R)-(methyl-quinolin-3-yl-carbamoyl)-3-phenyl-propyl]amide]
- stability in rat serum (PAM1723): unstable in rat serum

Compound: NCCC[C@H](N)C(=O)N[C@H](CCc1ccccc1)C(=O)Nc1cnc2ccccc2n1 [Compound 19, 2-(S),5-Diamino-pentanoic acid [3-phenyl-1-(R)-(quinoxalin-2-ylcarbamoyl)-propyl]-amide]
- stability in rat serum (PAM1723): unstable in rat serum

Compound: NCCC[C@H](N)C(=O)N[C@H](CCc1ccccc1)C(=O)Nc1cccc(-c2ccccc2)c1 [Compound 26]
- EPI MPC8 after incubation (h) with rabbit kidney supernatant at 37° C. ([7]; 0 h): 80 µg/mL
- EPI MPC8 after incubation (h) with rabbit kidney supernatant at 37° C. ([7]; 0.5 h): >80 µg/mL
- EPI MPC8 after incubation (h) with rabbit kidney supernatant at 37° C. ([7]; 1 h): >80 µg/mL
- EPI MPC8 after incubation (h) with rabbit kidney supernatant at 37° C. ([7]; 2 h): >80 µg/mL
- EPI MPC8, Saline (2 hours) ([7]; saline control of rabbit kidney supernatant bioassay, 37° C.): 2.5 µg/mL
- EPI MPC8 after 4 hours at 37° C., Frosen Human serum (PAM1723; Table 4, human serum): 2.5 µg/mL
- EPI MPC8 after 4 hours at 37° C., Frozen Rat serum (PAM1723; Table 4, rat serum): 2.5 µg/mL
- EPI MPC8 after 4 hours at 37° C., Saline (PAM1723; Table 4, saline): 2.5 µg/mL

Compound: NCCC[C@H](N)C(=O)N[C@H](CCc1ccccc1)C(=O)Nc1ccc2cccnc2c1 [Compound 28, 2-(S),5-Diamino-pentanoic acid [3-phenyl-1-(R)-(quinolin-7-ylcarbamoyl)-propyl]-amide]
- stability in rat serum (PAM1723): unstable in rat serum

Compound: NCCC[C@H](N)C(=O)N[C@H](CCc1ccccc1)C(=O)Nc1ncc(Cl)cc1Cl [Compound 36, 2-(S),5-Diamino-pentanoic acid [1-(R)-(3,5-dichloro-pyridin-2-ylcarbamoyl)-3-phenyl-propyl]amide]
- stability in rat serum (PAM1723): unstable in rat serum

Compound: NCCC[C@H](N)C(=O)N[C@H](CCc1ccccc1)C(=O)Nc1cc2ccccc2nn1 [Compound 39, 2-(S),5-Diamino-pentanoic acid [1-(R)-(cinnolin-3-ylcarbamoyl)-3-phenyl-propyl]-amide]
- stability in rat serum (PAM1723): unstable in rat serum

Compound: C[C@H]1COc2c(N3CCN(C)CC3)c(F)cc3c(=O)c(C(=O)O)cn1c23 [Levofloxacin, reference compound]
- Levo (MIC) (Enterobacter cloacae 25; levofloxacin alone): 2 µg/mL
- Levo (MIC) (Klebsiella pneumonia 79; levofloxacin alone): 64 µg/mL
- Levo (MIC) (Citrobacter freundii 13; levofloxacin alone): 64 µg/mL
- Levo (MIC) ([1]; levofloxacin alone): 128 µg/mL
- Levo (MIC) (Klebsiella pneumonia 73; levofloxacin alone): 64 µg/mL

Compound: L-phenylalanine-L-ornithine-α-naphtylamide [MC-207110, reference compound]
- EPI MPC8 after 4 hours at 37° C., Frozen Rat serum (PAM1723; Table 3, 50% rat serum): >80
